The text below walks through data of patent US20240165074A1, “COMPOSITION OF THE PHYTOCOMPOUNDS INTENDED TO ENHANCE CYTOTOXIC ACTIVITY IN THE TREATMENT OF ACUTE LYMPHOBLASTIC LEUKEMIA” (GDANSKI UNIWERSYTET MEDYCZNY, priority 2021, published 2024).

Series [1] concerns MOLT-4 (the line of human ALL leukemia). Kind of series: MTT viability test on MOLT-4 cells. It counts as cell-based. To be noted: for time after which viability of MOLT-4 neoplastic cells was reduced: bioavailable dose (1×), MTT; for impact on viability of MOLT-4 cells: even at doses attainable exclusively in vitro (2×). The protocol:
(§1) 1. Viability Test Comprising the Use of a Test Cell Line (Cultures in the Presence of Individual Phytochemicals or their Mix) and the Control Line
(§2) The test is based on an assessment of the enzymatic activity of mitochondria using MTT, 3-(4,5-Dimethylthiazol-2-yl)-2,5-diphenyltetrazolium) bromide. Live and metabolically active cells reduce MTT to formazan crystals. In the test, a 96-well plate was seeded with […] per well in the volume of 50 μl of standard culture medium, followed by the addition of serial dilutions of the analysed compounds in the volume of 50 μl of the culture medium to obtain the final volume of 100 μl. An identical quantity of the solvent without the analysed phytocompounds was added to the control wells. The phytocompounds were stored dissolved in 100% DMSO, and therefore each dilution and the culture media added for control were supplemented with DMSO up to the non-toxic final concentration of 0.05%. The viability of the cells was assessed after a specific incubation time (24-, 48-, or 72-hours) by adding 20 μl of the yellow MTT solution to each well, and the colorimetric conversion of MTT into purple formazan crystals was assessed after 2-3 hours of incubation by dissolving the crystals with acidic isopropanol and taking a spectrophotometric measurement at the wavelength of 570 nm.
The measurements of cell viability with the application of this assay were performed on the following lines: MOLT-4 (the line of human ALL leukemia, a standard cell line used to assess the effects of pharmaceutical compounds on this type of leukemias) and BJ (human foreskin fibroblasts, primary cells grown in a short-term culture).

Series [2] deals with BJ (human foreskin fibroblasts). Kind of series: MTT viability test on BJ control cells. It is filed as cell-based. To be noted: 0.5×, 1×, 2×; 24 and 72 hours (FIG. 2). The protocol: as §1
as §2, with “nm. […]” for “nm.”
(Tetrazolium dyes change colour on reduction, which living cells bring about.)

The conditions of series [3]: defines dose 1×; cited from earlier work.

Like-named read-outs stand apart in the source and are kept apart here.

For the compound `O=c1c(-c2ccc(O)cc2)coc2cc(O)cc(O)c12` [genistein], the “time after which the biological effect (reduced MOLT-4 viability) was attained” value in series [1] (dose 0.5×) is 72 hours. The “time after which viability of MOLT-4 neoplastic cells was reduced” value in series [1] (single compound) was found to be 48 h. Besides, the “cytotoxicity to MOLT-4 cells” value in series [1] (single compound, dose 2×) is reported as “relatively highly cytotoxic”. Further, the “viability of BJ cells” value in series [2] is “do not decrease the viability”. In series [3], the “maximum level of bioavailability of the compound in the blood” value (shortened to “maximum level”) was 3 µg/mL.

`Oc1ccc(C=Cc2cc(O)cc(O)c2)cc1` [resveratrol]: the “impact on viability of MOLT-4 cells” value in series [1] (single compound) is recorded as “did not demonstrate any impact on the viability”. In series [3], the “maximum level” value is 0.5 µg/mL.

As for `O=c1c(O)c(-c2ccc(O)c(O)c2)oc2cc(O)cc(O)c12` [quercetin], the “impact on viability of MOLT-4 cells” value in series [1] (single compound) is recorded as “did not demonstrate any impact on the viability”. The “maximum level” value in series [3] was 1.5 µg/mL.

For the compound `COc1cc(/C=C/C(=O)CC(=O)/C=C/c2ccc(O)c(OC)c2)ccc1O` [curcumin], in series [1], the “cytotoxicity to MOLT-4 cells” value is “relatively highly cytotoxic”. Further, the “time after which viability of MOLT-4 neoplastic cells was reduced” value in series [1] (single compound) stood at 72 h. Further, in series [3], the “maximum level” value was 2.25 µg/mL.
